Experimental data reported in patent US20120095046A1, “Amido-Isothiazole Compounds and Their Use as Inhibitors of 11Beta-HSD1 for the Treatment of Metabolic Syndrome and Related Disorders” (THE UNIVERSITY OF EDINBURGH, priority 2009, published 2012).
pIC50: −log10 of the molar value.

Tests used:
human 11β-HSD1 enzyme = molecular target: T1, human 11β-HSD1 enzyme (Homo sapiens, UniProt P28845); experiment: Cellular in vitro 11β-HSD1 enzyme inhibition assay (SPA, HEK293/11β-HSD1 cells); type: cell-based; details: HEK293 cells stably transfected with human 11β-HSD1; 22 nM tritiated cortisone, 2 hours
T1 construct: stably transfected with a construct containing the full-length gene coding for the human 11β-HSD1 enzyme; expressed in transfected cells; HEK293/11β-HSD1)
T1 sequence (P28845 whole entry): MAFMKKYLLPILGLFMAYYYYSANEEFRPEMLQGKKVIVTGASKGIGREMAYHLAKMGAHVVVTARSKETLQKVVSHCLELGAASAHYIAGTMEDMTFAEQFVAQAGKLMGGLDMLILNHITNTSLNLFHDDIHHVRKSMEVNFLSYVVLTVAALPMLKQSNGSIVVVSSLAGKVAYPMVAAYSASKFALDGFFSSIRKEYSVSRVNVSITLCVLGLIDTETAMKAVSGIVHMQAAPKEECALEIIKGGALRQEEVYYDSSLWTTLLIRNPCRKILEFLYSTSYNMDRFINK
Experimental: Cellular In Vitro 11β-HSD1 Enzyme Inhibition Assay
Compounds were assessed by a Scintillation Proximity Assay (SPA) performed according to the following protocol:
HEK293 cells were stably transfected with a construct containing the full-length gene coding for the human 11β-HSD1 enzyme to create HEK293/11β-HSD1 cells. Cells were routinely cultured in DMEM containing 10% calf foetal serum, 1% glutamine, and 1% penicillin and streptomycin. Prior to assay, cells were plated at 2×10^4 cells/well in 96-well poly-D-Lys coated flat-bottomed microplates and incubated in 5% CO2, 95% O2 at 37° C. for 24 hours. The media in each well was removed immediately before assay.
Compounds to be tested were dissolved in DMSO at 10 mM and serially diluted into water containing 10% DMSO. Diluted compounds at a volume of 10 μL were added to wells of a 96-well V-bottomed microplate. A solution of DMEM, 1% glutamine, 1% penicillin and streptomycin, and 22 nM tritiated cortisone was prepared and 90 μL added to each well of the assay plate. This solution (100 μL/well) was transferred to the plate containing the cells. The plate was then incubated in 5% CO2, 95% O2 at 37° C. for 2 hours.
Following this incubation, 50 μL of the assay solution was transferred to each well of a 96-well scintillation microplate. A mixture consisting of anti-mouse YSi SPA beads, pre-mixed with anti-cortisol antibody in assay buffer (50 mM Tris.HCl, pH 7.0; 300 mM NaCl; 1 mM EDTA, 5% glycerol) was prepared and 50 μL added to each well of the scintillation microplate. An adhesive strip was applied to the microplate and the plate gently shaken for at least 2 hours at room temperature, and then spun briefly on a low speed centrifuge. The plate was read on a scintillation counter suitable for 96-well microplates. For the calculation of percentage inhibition, a series of wells were added to the plate that represented the assay maximum and the assay minimum: one set that contained substrate without cells (minimum) and another set that contained substrate and cells without any compound (maximum).
The calculation of median inhibitory concentration (IC50) values for the compounds was performed using GraphPad Prism® software. Dose-response curves for each compound were plotted as fractional inhibition and data fitted to the four parameter logistic equation.

human 11β-HSD2 = molecular target: T2, human 11β-HSD2 (Homo sapiens, UniProt P80365); experiment: Cellular in vitro 11β-HSD2 enzyme inhibition assay (CHO cells, TLC/phosphoimager); type: cell-based; details: CHO cells stably transfected with human 11β-HSD2; 22 nM tritiated cortisol, 16 hours
T2 construct: CHO cells stably transfected with the full-length gene coding for human 11β-HSD2 were used; expressed in transfected cells
T2 sequence (P80365 1-405): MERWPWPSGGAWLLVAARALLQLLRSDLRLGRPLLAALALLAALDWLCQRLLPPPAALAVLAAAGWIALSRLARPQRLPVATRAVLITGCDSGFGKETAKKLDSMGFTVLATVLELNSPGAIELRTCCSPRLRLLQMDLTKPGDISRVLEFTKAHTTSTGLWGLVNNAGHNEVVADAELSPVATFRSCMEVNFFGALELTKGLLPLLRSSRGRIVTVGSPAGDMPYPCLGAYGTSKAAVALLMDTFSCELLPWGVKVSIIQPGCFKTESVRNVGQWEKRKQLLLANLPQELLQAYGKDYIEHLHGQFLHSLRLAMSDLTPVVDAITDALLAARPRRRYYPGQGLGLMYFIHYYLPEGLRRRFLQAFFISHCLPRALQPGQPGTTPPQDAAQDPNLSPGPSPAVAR
Experimental: Cellular In Vitro 11β-HSD2 Enzyme Inhibition Assay
For measurement of inhibition of 11β-HSD2, CHO cells stably transfected with the full-length gene coding for human 11β-HSD2 were used. Assays were carried out in 96-well microplates containing 1×10^5 cells/well. Controls and compounds were plated as above, so that the final DMSO concentration in each well was 1%. To initiate the assay, 90 μL of a solution of HAMS F-12 medium containing 1% glutamine, 1% penicillin and streptomycin, and 22 nM tritiated cortisol was added to each well of the assay plate. The plate was then incubated in 5% CO2, 95% O2 at 37° C. for 16 hours.
The assay solutions were transferred to glass tubes and 20 μL ethyl acetate added to each tube. Each tube was vortexed thoroughly and the upper layer containing the tritiated steroid transferred to a fresh glass tube. The solvent was evaporated by placing the tubes in a heating block at 65° C. under a stream of Nitrogen gas. 20 μL ethanol was added to each of the dried samples and vortexed briefly. Each sample was applied to a silica TLC plate and the plate dried. The plate was placed vertically in a glass tank containing 92% chloroform:8% ethanol and the solvent allowed to rise up the plate. The plate was dried, placed in an imaging cassette, and overlayed with a tritium imaging plate for 1-2 days. The amount of enzyme inhibition in each sample was determined by measuring the intensity of the substrate and product spots using a phosphoimager.
IC50 values for inhibitors were determined as described for 11β-HSD1.

pIC50 (human 11β-HSD1 enzyme) | pIC50 (human 11β-HSD2) | Structure (SMILES)
≥ 6.30 | < 5.00 | O=C1c2ccccc2C(=O)N1c1cc(C(=O)N2CCC[C@@H]3CCCC[C@@H]32)ns1 [BB-03, 2-[3-((4aS,8aS)-Octahydro-quinoline-1-carbonyl)-isothiazol-5-yl]-isoindole-1,3-dione]
7.74 | < 5.00 | O=C(c1cc(-c2cn[nH]c2)sn1)N1CCC[C@@H]2CCCC[C@@H]21 [BB-01, (4aS,8aS)-Octahydro-quinolin-1-yl-[5-(1H-pyrazol-4-yl)-isothiazol-3-yl]-methanone]
7.21 | < 5.00 | O=C(c1cc(C2CCOCC2)sn1)N1CCC[C@@H]2CCCC[C@@H]21 [CC-01, (4aS,8aS)-Octahydro-quinolin-1-yl-[5-(tetrahydro-pyran-4-yl)-isothiazol-3-yl]-methanone]
≥ 6.30 | < 5.00 | O=C(c1cc(-c2cn[nH]c2)sn1)N1CCCC1c1ccc(F)cc1 (stereo not drawn) [BB-02, [2-(4-Fluoro-phenyl)-pyrrolidin-1-yl]-[5-(1H-pyrazol-4-yl)-isothiazol-3-yl]-methanone]
7.23 | < 5.00 | O=C(c1cnsc1-c1ccccc1)N1CCCC2CCCCC21 (stereo not drawn) [AA-01, (Octahydro-quinolin-1-yl)-(5-phenyl-isothiazol-4-yl)-methanone]
≥ 6.30 | < 5.00 | O=C(c1cc(-c2ccccc2)sn1)N1CCCC2CCCCC21 (stereo not drawn) [AA-02, (Octahydro-quinolin-1-yl)-(5-phenyl-isothiazol-3-yl)-methanone]
